# Earlier results in US20040191328A1, “Combination of gallium compounds with nonchemotherapeutic anticancer agents in the treatment of neoplasia” (priority 2002, published 2004).
# How the values were obtained:
# [1] = tested on: cells in vitro
# [2] = increased exposure secondary to decreased clearance
dose reduction of paclitaxel and doxorubicin needed to achieve equivalent myelosuppression [2],SMILES,"concentration at which growth inhibition occurs ([1]; chronic exposure, low concentrations)",concentration inducing both cellular cytotoxicity and inhibition of growth ([1]; exposure of duration longer than 24 hours)
,"O=[N+]([O-])[O-].O=[N+]([O-])[O-].O=[N+]([O-])[O-].[Ga+3] [Gallium nitrate, gallium nitrate]",10 µg/mL,> 50 µg/mL
2 fold,C/C=C/C[C@@H](C)C(=O)[C@H]1C(=O)N[C@@H](C(C)C)C(=O)N(C)CC(=O)N(C)[C@@H](CC(C)C)C(=O)N[C@@H](C(C)C)C(=O)N(C)[C@@H](CC(C)C)C(=O)N[C@@H](C)C(=O)N[C@H](C)C(=O)N(C)[C@@H](CC(C)C)C(=O)N(C)[C@@H](CC(C)C)C(=O)N(C)[C@@H](C(C)C)C(=O)N1C [PSC 833],,
